What was measured:
[1] = target: T1, Focal Adhesion Kinase (full-length Flag-tagged human FAK) (Homo sapiens, UniProt Q05397); assay: in vitro FAK ELISA kinase assay; format: biochemical; conditions: compound 10 uM; ATP 2 uM; read-out: FAK % Inhib ave: 10 uM
T1 construct: a purified recombinant full-length Flag-tagged human FAK protein; Flag; made in house; host or cells: baculovirus infected insect cells
Experimental: Compound effects on the tyrosine kinase activity of Focal Adhesion Kinase were assessed with an in vitro FAK ELISA kinase assay. This assay measures the incorporation of phosphate from ATP into a FAK substrate protein using an antibody specific for phospho-tyrosine.
500 ng of FAKsubstrate, a purified recombinant fusion protein of GST and a 73 amino acid region surrounding the Tyr397 human FAK autophosphorylation site, was coated in a high-protein binding polystyrene 96 well plate overnight in a buffer containing 50 mM Hepes, pH 7.5, 150 mM NaCl, 0.1 mM Na-oVO4, 0.1 mM NaF and 1 protease inhibitor tablet/10 mL (Complete Mini-EDTA-free, Roche). The next day this solution was removed and the wells were incubated with 0.2% BSA in 50 mM Hepes, pH 7.5, 150 mM NaCl, 0.2 mM PMSF for 1 hour at 30° C. to block unoccupied protein binding sites. The wells were then washed with 50 mM Hepes, pH 7.5, 150 mM NaCl, 0.1% Tween 20. The kinase reaction was performed with 25 ng/well of FAK enzyme (a purified recombinant full-length Flag-tagged human FAK protein made in baculovirus infected insect cells) in 0.1 mL of a buffer containing 25 mM Hepes, pH 7.5, 5 mM MgCl2, 0.5 mM MnCl2, 10 uM NaoVO4, 0.2 mM PMSF. Compounds were added from 30% DMSO stock solutions for a screening concentration of 10 uM or IC50 determinations from 50 uM in half-log dilutions. The reaction is initiated with addition of ATP to a final concentration of 2 uM and incubated at 30° C. for 1 hour. Following the kinase reaction step, the wells were washed and incubated with 50 ng of Horseradish Peroxidase conjugated anti-phosphotyrosine antibody (PT-66 HRP, Sigma) in 0.1 mL wash buffer for 1 hour at 30° C. Wells were then washed and 0.1 mL HRP substrate, Tetra-methyl Benzidine (Sigma) was added and the color reaction allowed to proceed for 2-3 minutes followed by the addition of 0.1 mL of 1N H2SO4 to stop the HRP reaction. Percent inhibition of FAK kinase activity was calculated by comparing compound containing wells to wells treated with diluent only. Background was subtracted from all wells and was defined as the activity of FAK using 500 ng/well of BSA as a substrate. IC50 values were obtained using Prism data analysis software.

[2] = target: T2, CAK complex (human Cdk7, human Cyclin H, MAT-1) (Homo sapiens, UniProt P50613); assay: in vitro time-resolved-fluorescence assay for the CAK kinase activity; format: biochemical; conditions: compound 20 uM; read-out: CAK % inhib; 20 uM
T2 construct: made in house; host or cells: SF-900 insect cells co-infected with Flag-Cdk7 and Bab-Cyclin H baculoviruses
Text: Cyclin Dependent Kinase Activating Kinase (CAK) is a complex of proteins that phosphorylates a well-conserved threonine (Thr) residue in all mammalian cyclin dependent kinases (cdks). The CAK complex can also phosphorylate several components of the transcriptional machinery, such as the C-terminal domain (CTD) of RNA polymerase II in the TFIIH transcription complex. The CAK complex localizes to the nucleus, and is composed of three proteins: Cdk7, Cyclin H, and MAT-1. The exemplified method teaches the cloning and expression CAK subunits, particularly a human Cdk7 and a human Cyclin H. The method of the present invention exemplified herein is equally applicable to the cloning and expression of any CAK subunit, such as variants, structural or functional polymorphisms of the human Cdk7 or the human Cyclin H, or their orthologs in other animals such as rat, mouse, pig, dog and monkey.
The CAK complex was purified from co-infected SF-900 insect cells at 48 hours post infection by batch immunoaffinity purification. The infected cells were pelleted by centrifugation and lysed in 1/10 of the culture volume in a solution containing 50 mM Hepes pH 7.5, 10 mM MgCl2, 1 mM DTT, 10 mM Beta-Glycerol phosphate, 20 uM Na-oVO4, 0.2 mM PMSF and 1 μg/mL each of leupeptin, aprotinin, and pepstatin on ice. Cells were mechanically lysed by trituration through a 22-gauge needle followed by sonication or alternately by nitrogen cavitation. The lysed cells were centrifuged at 50,000×G for 1 hour at 4° C. to remove debris and the supernatant was applied to 1/10 volume of prewashed Flag-M2 immunoaffinity resin (Sigma). The CAK complex, by nature of the Flag tagged Cdk7 protein, was allowed to bind to the Flag antibody of the resin overnight at 4° C. with gentle rocking. The resin was washed 4 times with 5 resin volumes of lysis buffer and the bound proteins were eluted by competition with 0.5 mg/mL Flag peptide ([…], American Peptide Co, Inc., SEQ ID NO: 16) in a total of 2 resin volumes. To remove the Flag peptide, the eluted material was applied to PD-10 gel filtration columns (Pharmacia) under conditions recommended by the manufacturer.
Measurement of CAK kinase activity was accomplished using an antibody methodology in which a Europium labeled antibody binds preferentially to serine phosphorylated GST-CTD substrate. The long-lived europium label fluorescence allows a greater signal-to-noise ratio due to the delay in reading the emission wavelength, thereby eliminating signals from immediate fluorescence and fluorescent pharmaceutical screening compounds.
The time-resolved-fluorescence assay for the CAK kinase activity is performed as follows. In a well of a black glutathione coated 96 well micro titer plate (Pierce Chemical, No. 15360), the following reagents were added: 1) 25 ul substrate solution containing 500 ng purified GST-CTD in a buffer having 50 mM Hepes pH 7.5, 10 mM MgCl2, 1 mM DTT, 0.2 mM PMSF, 40 uM Na-oVO4, and 22 uM ATP (as a background control, the buffer, including ATP but not substrate was added); 2) 2.5 ul of screening compounds in a diluent containing 30% DMSO/25 mM Hepes pH7.5 (As a control, the diluent only was added. Typically the final concentration of compound is 1 uM); and 3) 250 ng CAK enzyme complex in enzyme buffer containing 25 ul of 50 mM Hepes pH 7.5, 10 mM MgCl2, 1 mM DTT, 0.2 mM PMSF, and 40 uM Na-oVO4. The micro titer plate was shaken for 2 minutes on a titer plate shaker and allowed to incubate at 30° C. for 20 minutes.
Subsequently, Kinase Stop Solution (75 mM EDTA, 0.2 mM PMSF, 1 mM DTT, 120 uM Na oVO4 in PBS) was added (50 ul/well). The plate was shaken for 2 minutes and incubated overnight at room temperature to allow substrate binding to the wells. The plate contents were flicked out, and the wells of the plate were washed 4 times with 350 ul of wash buffer (Delphia wash buffer, Perkin-Elmer, Inc.). The plate was tapped dry. […]

T1 sequence (Q05397 whole entry): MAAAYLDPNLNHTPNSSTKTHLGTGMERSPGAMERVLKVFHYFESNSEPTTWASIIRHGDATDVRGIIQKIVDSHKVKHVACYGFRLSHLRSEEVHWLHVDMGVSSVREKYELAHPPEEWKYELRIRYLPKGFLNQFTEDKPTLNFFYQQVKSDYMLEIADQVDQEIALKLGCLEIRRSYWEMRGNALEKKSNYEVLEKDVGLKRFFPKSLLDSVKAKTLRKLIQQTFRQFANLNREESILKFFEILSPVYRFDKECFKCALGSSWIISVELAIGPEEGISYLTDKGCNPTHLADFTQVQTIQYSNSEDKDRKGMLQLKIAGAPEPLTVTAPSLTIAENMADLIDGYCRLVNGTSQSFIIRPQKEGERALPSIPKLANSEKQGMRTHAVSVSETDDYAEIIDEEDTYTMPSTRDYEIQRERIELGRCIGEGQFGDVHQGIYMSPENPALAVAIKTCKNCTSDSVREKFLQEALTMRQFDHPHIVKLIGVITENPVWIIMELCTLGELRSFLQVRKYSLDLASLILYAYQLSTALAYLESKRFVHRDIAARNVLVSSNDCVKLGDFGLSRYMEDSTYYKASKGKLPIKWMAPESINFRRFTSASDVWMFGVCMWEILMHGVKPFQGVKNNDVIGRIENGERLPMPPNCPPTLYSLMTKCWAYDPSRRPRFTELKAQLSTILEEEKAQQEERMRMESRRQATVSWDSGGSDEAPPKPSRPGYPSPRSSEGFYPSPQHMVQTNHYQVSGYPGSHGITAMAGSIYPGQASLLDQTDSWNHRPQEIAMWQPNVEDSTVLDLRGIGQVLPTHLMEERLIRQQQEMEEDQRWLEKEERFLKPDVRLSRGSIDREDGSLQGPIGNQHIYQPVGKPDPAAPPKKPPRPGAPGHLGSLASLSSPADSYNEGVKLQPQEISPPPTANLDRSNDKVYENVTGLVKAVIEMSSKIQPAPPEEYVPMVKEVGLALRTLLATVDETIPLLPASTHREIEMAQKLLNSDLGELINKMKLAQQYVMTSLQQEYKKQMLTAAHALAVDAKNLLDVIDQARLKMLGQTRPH
T2 sequence (P50613 with tags, fused parts or gaps): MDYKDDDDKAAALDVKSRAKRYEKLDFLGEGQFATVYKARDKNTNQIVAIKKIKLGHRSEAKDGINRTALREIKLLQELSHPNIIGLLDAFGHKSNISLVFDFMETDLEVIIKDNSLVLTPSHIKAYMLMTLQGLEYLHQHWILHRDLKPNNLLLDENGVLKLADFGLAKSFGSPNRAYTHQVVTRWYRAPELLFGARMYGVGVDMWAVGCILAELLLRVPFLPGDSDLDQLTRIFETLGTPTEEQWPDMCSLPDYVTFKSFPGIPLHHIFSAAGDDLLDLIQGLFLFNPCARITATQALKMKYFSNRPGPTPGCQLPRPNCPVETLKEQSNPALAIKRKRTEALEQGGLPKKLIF
T2 sequence (as listed by the source partner): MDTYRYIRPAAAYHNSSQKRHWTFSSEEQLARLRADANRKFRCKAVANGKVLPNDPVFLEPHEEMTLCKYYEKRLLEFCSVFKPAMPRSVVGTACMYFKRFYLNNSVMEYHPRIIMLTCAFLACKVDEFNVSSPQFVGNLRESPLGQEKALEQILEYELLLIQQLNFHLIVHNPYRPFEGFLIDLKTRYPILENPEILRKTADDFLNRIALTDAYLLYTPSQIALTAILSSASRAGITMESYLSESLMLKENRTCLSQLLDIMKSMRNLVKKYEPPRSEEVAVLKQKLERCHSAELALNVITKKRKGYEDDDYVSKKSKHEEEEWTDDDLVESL

Row | Structure (SMILES) | inhibition at 10 µM [1] [%] | inhibition at 20 µM [2] [%]
1 | COc1ccc(-n2nnc3cnc(Nc4ccc(OCC(O)CN(C)C)cc4)nc32)cc1OC (stereo not shown) [Compound 3, 1-{4-[3-(3,4-Dimethoxy-phenyl)-3H-[1,2,3]triazolo[4,5-d]pyrimidin-5-ylamino]-phenoxy]-3-dimethylamino-propan-2-ol] | 53.2 | 
2 | CN(C)CCCOc1ccc(Nc2ncc3nnn(-c4ccc5c(c4)CCC5)c3n2)cc1 [Compound 4, [4-(3-Dimethylamino-propoxy)-phenyl]-(3-indan-5-yl-3H-[1,2,3]triazolo[4,5-d]pyrimidin-5-yl)-amine] | 95 | 
3 | CCCCCOc1ccc(Nc2ncc3nnn(-c4ccc5c(c4)CCC5)c3n2)cc1 [Compound 5, (3-Indan-5-yl-3H-[1,2,3]triazolo[4,5-d]pyrimidin-5-yl)-(4-pentyloxy-phenyl)-amine] | 12.4 | 25.9
4 | CC(C)(C)OC(=O)N1CCC(CNc2ncc3nnn(-c4ccc5c(c4)CCC5)c3n2)CC1 [Compound 6, 4-[(3-Indan-5-yl-3H-[1,2,3]triazolo[4,5-d]pyrimidin-5-ylamino)-methyl]-piperidine-1-carboxylic acid tert-butyl ester] | 73 | 28.9
5 | CN(C)c1ccc(/C=C/c2ccc(Nc3ncc4nnn(-c5ccc6c(c5)CCC6)c4n3)cc2)cc1 [Compound 7, {4-[2-(4-Dimethylamino-phenyl)-vinyl]-phenyl}-(3-indan-5-yl-3H-[1,2,3]triazolo[4,5-d]pyrimidin-5-yl)-amine] | -5 | 38.7
6 | CN(C)CC(O)COc1ccc(Nc2ncc3nnn(C4CCCCC4)c3n2)cc1 (stereo not shown) [Compound 9, 1-[4-(3-Cyclohexyl-3H-[1,2,3]triazolo[4,5-d]pyrimidin-5-ylamino)-phenoxy]-3-dimethylamino-propan-2-ol] | 23 | 85.9
7 | CN(C)CC(O)COc1ccc(Nc2ncc3nnn(-c4ccc(C5CCCCC5)cc4)c3n2)cc1 (stereo not shown) [Compound 15, 1-{4-[3-(4-Cyclohexyl-phenyl)-3H-[1,2,3]triazolo[4,5-d]pyrimidin-5-ylamino]-phenoxy}-3-dimethylamino-propan-2-ol] | 80.5 | 76
8 | CN(C)CC(O)COc1ccc(Nc2ncc3nnn(-c4ccc(N5CCOCC5)cc4)c3n2)cc1 (stereo not shown) [Compound 16, 1-Dimethylamino-3-{4-[3-(4-morpholin-4-yl-phenyl)-3H-[1,2,3]triazolo[4,5-d]pyrimidin-5-ylamino]-phenoxy}-propan-2-ol] | 50.5 | 83.1
9 | CN(C)CC(O)COc1ccc(Nc2ncc3nnn(-c4ccc5c(c4)Cc4ccccc4-5)c3n2)cc1 (stereo not shown) [Compound 17, 1-Dimethylamino-3-{4-[3-(9H-fluoren-2-yl)-3H-[1,2,3]triazolo[4,5-d]pyrimidin-5-ylamino]-phenoxy}-propan-2-ol] | 86.8 | 53.8
10 | CCCCNS(=O)(=O)c1cccc(-n2nnc3cnc(Nc4ccc(OCC(O)CN(C)C)cc4)nc32)c1 (stereo not shown) [Compound 35, N-Butyl-3-{5-[4-(3-dimethylamino-2-hydroxy-propoxy)-phenylamino]-[1,2,3]triazolo[4,5-d]pyrimidin-3-yl}-benzene-sulfonamide] | 91.6 | 

Next, values leading:

Row | inhibition at 10 µM [1] [%] | inhibition at 20 µM [2] [%] | Structure (SMILES)
11 | 93.6 | 102 | CN(C)CC(O)COc1ccc(Nc2ncc3nnn(-c4ccc5c(c4)CCC5)c3n2)cc1 (stereo not shown) [Compound 1, 1-Dimethylamino-3-[4-(3-indan-5-yl-3H-[1,2,3]triazolo[4,5-d]pyrimidin-5-ylamino)-phenoxy]-propan-2-ol]
12 | 77.4 | 92.2 | CN(C)CC(O)COc1ccc(Nc2ncc3nnn(-c4ccccc4)c3n2)cc1 (stereo not shown) [Compound 8, 1-Dimethylamino-3-[4-(3-phenyl-3H-[1,2,3]triazolo[4,5-d]pyrimidin-5-ylamino)-phenoxy]-propan-2-ol]
13 | 64.7 | 11.5 | CN(C)CC(O)COc1ccc(Nc2ncc3nnn(-c4cccc(C#N)c4)c3n2)cc1 (stereo not shown) [Compound 10, 3-{5-[4-(3-Dimethylamino-2-hydroxy-propoxy)-phenylamino]-[1,2,3]triazolo[4,5-d]pyrimidin-3-yl]-benzonitrile]
14 | 65.3 | 56 | CN(C)CC(O)COc1ccc(Nc2ncc3nnn(-c4ccc(F)c(F)c4)c3n2)cc1 (stereo not shown) [Compound 11, 1-{4-[3-(3,4-Difluoro-phenyl)-3H-[1,2,3]triazolo[4,5-d]pyrimidin-5-ylamino]-phenoxy}-3-dimethylamino-propan-2-ol]
15 | 82.9 | 92.4 | CN(C)CC(O)COc1ccc(Nc2ncc3nnn(-c4ccc5ccccc5c4)c3n2)cc1 (stereo not shown) [Compound 12, 1-Dimethylamino-3-[4-(3-naphthalen-2-yl-3H-[1,2,3]triazolo[4,5-d]pyrimidin-5-ylamino)-phenoxy]-propan-2-ol]
16 | 24.4 | 72.6 | CN(C)CC(O)COc1ccc(Nc2ncc3nnn(-c4ccc5ncccc5c4)c3n2)cc1 (stereo not shown) [Compound 13, 1-Dimethylamino-3-[4-(3-quinolin-6-yl-3H-[1,2,3]triazolo[4,5-d]pyrimidin-5-ylamino)-phenoxy]-propan-2-ol]
17 | 76.8 | 42.2 | CN(C)CC(O)COc1ccc(Nc2ncc3nnn(-c4ccc5ncsc5c4)c3n2)cc1 (stereo not shown) [Compound 14, 1-[4-(3-Benzothiazol-6-yl-3H-[1,2,3]triazolo[4,5-d]pyrimidin-5-ylamino)-phenoxy]-3-dimethylamino-propan-2-ol]
